Data on 2 compounds can be found in ChEMBL document CHEMBL4414553, “Imidazopyridine-based selective and multifunctional ligands of biological targets associated with psychiatric and neurodegenerative diseases” (Eur J Med Chem, 2019).

Test [1] deals with T1, Orexin/Hypocretin receptor type 1 (Homo sapiens, UniProt O43613).
T1 sequence (O43613 whole entry): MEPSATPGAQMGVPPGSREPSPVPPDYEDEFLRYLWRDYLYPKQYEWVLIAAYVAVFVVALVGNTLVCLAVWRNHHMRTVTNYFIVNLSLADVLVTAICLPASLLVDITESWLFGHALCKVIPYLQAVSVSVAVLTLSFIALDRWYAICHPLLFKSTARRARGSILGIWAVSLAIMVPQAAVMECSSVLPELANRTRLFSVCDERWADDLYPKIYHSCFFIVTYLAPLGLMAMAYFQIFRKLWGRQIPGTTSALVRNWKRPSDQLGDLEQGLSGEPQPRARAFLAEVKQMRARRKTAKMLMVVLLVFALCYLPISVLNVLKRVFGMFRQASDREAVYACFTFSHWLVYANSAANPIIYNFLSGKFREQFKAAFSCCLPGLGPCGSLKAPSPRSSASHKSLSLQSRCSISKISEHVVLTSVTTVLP
The test is described as follows: Antagonist activity at human OX1R expressed in CHOK1 cells by Syto62 probe based fluorescence assay. The test is classed as cell-based.

Another test has as its target T2, Orexin receptor type 2 (Homo sapiens, UniProt O43614).
T2 sequence (O43614 whole entry): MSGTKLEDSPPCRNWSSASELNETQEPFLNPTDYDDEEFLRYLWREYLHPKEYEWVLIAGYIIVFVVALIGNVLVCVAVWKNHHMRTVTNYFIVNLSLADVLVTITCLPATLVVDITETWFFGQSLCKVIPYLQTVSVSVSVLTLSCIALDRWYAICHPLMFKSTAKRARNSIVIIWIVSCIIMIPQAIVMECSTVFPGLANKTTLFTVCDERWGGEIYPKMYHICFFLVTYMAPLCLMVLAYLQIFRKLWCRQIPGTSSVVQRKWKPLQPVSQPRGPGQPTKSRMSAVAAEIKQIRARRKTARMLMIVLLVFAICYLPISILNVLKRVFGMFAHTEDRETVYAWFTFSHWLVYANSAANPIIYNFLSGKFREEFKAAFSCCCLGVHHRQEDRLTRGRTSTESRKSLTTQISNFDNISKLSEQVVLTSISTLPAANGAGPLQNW
Kind of test: Antagonist activity at human OX2R expressed in CHOK1 cells by Syto62 probe based fluorescence assay. The test is classed as cell-based.

In the next test the test system is Mus musculus. The test is described as follows: Inhibition of DYRK1A in mouse at 9 mg/kg relative to control. It is filed as functional.
For test [2], the target named is Dual specificity tyrosine-phosphorylation-regulated kinase 1A (Homo sapiens, UniProt Q13627). The test is described as follows: Inhibition of DYRK1A (unknown origin) by TR-FRET assay. (In TR-FRET formats the signal depends on donor and acceptor labels being close together.)

A value given as a limit tells only on which side of the number the result lay.

For the compound `O=C(c1nccc2[nH]cnc12)N1CCC(F)(F)C(Oc2ccc3ccccc3n2)C1` (centres undefined), the IC50 in test [1] was 89 nM; against Orexin receptor type 2, > 5870 nM.
As to `Cc1nc2ccc(-c3cc(N)nc(N)c3)nc2n1C[C@@H](C)Oc1ccccc1`, the inhibition in vivo at 9 mg/kg in the test with Mus musculus amounted to 46%. In test [2], this compound had an IC50 of 8 nM.

The IC50 is the concentration needed to halve the response being measured. High values mean a need for much substance, low ones inhibition by little substance. The inhibition in vivo is the relative decrease from the control value, in per cent.
